Patent US20230142353A1, “IMPLANT DEVICES AND METHODS FOR TREATMENT OF CERVICAL CANCER” (Washington University, priority 2020, published 2023)

How the values were obtained:
[1] = test system: cervical cancer cell lines C33A, Me-180, HT3, Caski, and SiHa; assay: In vitro cytotoxicity of Cis-Pt, MTT assay; format: cell-based, Human; conditions: average dose-response curve of 5 cell lines, 48 hours, read-out: average IC50 (Av-IC50)
Procedure: Human cervical cancer cell lines C33A, Me-180, HT3, Caski, and SiHa were purchased from American Type Culture Collection (ATCC; Manassas, Va.). Cell lines were cultured in Dulbecco's Modified Eagle Medium (DMEM; Gibco Life Technologies, Grand Island, N.Y.) supplemented with 10% fetal bovine serum (FBS; Gibco Life Technologies), 2 mmol/L of L-glutamine, 100 ng/mL penicillin, and 100 ng/mL streptomycin (Corning CellGro, Mediatech, Manassas, Va.). All cells were cultured at 37° C., 5% CO2 in a NuAire water jacket incubator (Plymouth, Minn.).
The in vitro cytotoxicity on cervical cancer cell lines was assessed using an MTT assay (Sigma Aldrich). Briefly, cells were seeded at 5×10^3 cells/well in 96-well plates overnight at 37° C. to promote their adhesion to the plates. […] After 48 hours of treatment, MTT solution was added to the cells for 3 hours, and then the stop solution was added to dissolve the formazan crystals overnight. The wells were read with SpectraMax i3 multimode microplate spectrophotometer (Molecular Devices, San Jose, Calif.) at 570 nm. Dose-response curves were graphed and the average dose-response curve was calculated.

[2] = test system: Cervical cancer cell lines; assay: Pt content in cell lines in vitro (ICP-MS); format: cell-based, Human; conditions: treated at 6 μM (Av-IC50) for 48 hours, average
Procedure: Cervical cancer cell lines (10×10^6 cells) were treated Cis-Pt at Av-IC50 for 48 hours. Cells were then lifted with trypsin (0.05% Trypsin-EDTA, Gibco Life Technologies), spun down, and washed 3 times, to eliminate free Cis-Pt. Cell pellets were then weighed, digested, and analyzed by ICP-MS, and the average Pt content in cell lines in vitro (Av-Pt-in vitro) was calculated.

[3] = Pt accumulation in cervical cancer patient biopsies (ICP-MS); format: in vivo, Human; conditions: for drug accumulation in patient tissues lower than in cell lines at in vitro efficacious concentration: patient biopsies vs cell lines treated at 6 μM
Procedure: Patients with biopsy-proven cervical carcinoma were enrolled into an institutional review board-approved prospective study in which cervical tumor biopsies were obtained 3 weeks into chemoradiation treatment. All patients were treated with definitive chemoradiation treatment, which consisted of external beam radiation therapy to the pelvis (50.4 Gy) 4 days per week using intensity-modulated radiation therapy with a split-pelvis technique with 6 weekly brachytherapy boosts to a dose of 6.5 Gy per fraction to point A, starting at week 1. Concurrent with radiation therapy, all patients received the conventional treatment of cisplatin (40 mg/m^2, intravenous [IV]) weekly. Cervical tumor samples were collected immediately before delivery of the third brachytherapy treatment, approximately half-way through the treatment course. Samples were collected, immediately snap-frozen, and processed for storage. The average time between cisplatin administration and biopsy was 4.5 days (range, 1-17 days).
To determine tissue Cis-Pt accumulation within the patient biopsy samples, tissue digestion and inductively coupled plasma mass spectrometry (ICP-MS) were performed to quantify the levels of Pt in the samples. Briefly, biopsy samples were thawed and precisely weighed (±0.1 mg) before being digested in concentrated nitric acid (HNO3) overnight. Samples were then diluted with deionized water to a final 5% HNO3 (v/v) and digested using a microwave digestion system (MARS 6 Microwave Digestion System, CEM, Matthews, N.C.) at 200° C. for 45 minutes. Samples were analyzed with ICP-MS (ELAN DRC II ICP-MS, Perkin Elmer, Inc, Waltham, Mass.) for Pt content, against a calibration curve of Pt standards of 0, 0.1, 1, 10, 50, 100, and 250 parts per billion (ppb) in 5% HNO3, which were prepared from 10 parts per million Pt standard solution (Inorganic Ventures, Christiansburg, Va.). Terbium was used as an internal standard throughout the ICP-MS analysis. The average Pt content in clinical biopsies (Av-Pt-Clin) was calculated.
[…]

[4] = test system: Cervical cancer cell lines; assay: In vitro radio-sensitization with Cis-Pt, MTT assay and combination index; format: cell-based, Human; conditions: for sensitization to radiation therapy: 6 Gy
Procedure: Clinically relevant Pt concentration (Clin-conc) was estimated as a fraction of Av-IC50 based on the relative difference between tissue Pt contents in clinical biopsies and in vitro: Av-IC50×(Av-Pt-Clin/Av-Pt-in vitro). The radiosensitizing effect of Cis-Pt on cervical cancer cell lines was assessed using an MTT assay. Briefly, cells were treated with or without Cis-Pt at Av-IC50 (6 μM) or Clin-conc (1 μM) for a duration of 24 or 48 hours. Additionally, cells were also treated with or without a single-fraction dose of 6 Gy (4 Gy/min) using an RS2000 160 kV x-ray Irradiator equipped with a 0.3-mm copper filter (Rad Source Technologies Inc, Buford, Ga.), at the beginning of the treatment. At the end of each treatment, an MTT assay was performed to determine the survival of the cells.
The combination effect between Cis-Pt treatment and radiation was evaluated by calculating the combination index (CI) using the formula: CI=(Ea×Eb)/Eab, where Ea and Eb are the individual effects (fractional killing, 0≤Ei≤1) and Eab is the combination effect of drugs a and b. This index represents the ratio between the predicted combination effect and the actual combination effect. When the CI=1, the effect is additive. When the CI<1, the effect is supra-additive; when CI>1, the effect is sub-additive.

[5] = test system: C33A cervical cancer cells; assay: In vitro clonogenic survival; format: cell-based, Human; conditions: for clonogenic growth: with or without radiation
Procedure: C33A cervical cancer cells (0.5×10^6 cells/condition) were plated in T25 flasks 24 hours before treatment. Cells were treated with Cis-Pt at 0, 1, 3, or 6 μM for 4 hours, and subjected to irradiation at 0 or 6 Gy (4 Gy/min). Cells were then lifted with trypsin, counted, and were plated in triplicates for each condition at 500 cells per well in 24 well plates. After 12 days of culture, cells were fixed and stained with 0.5% Crystal Violet (Sigma Aldrich) in methanol, washed, and dried.

[6] = In vivo biodistribution of Pt in subcutaneous C33A tumor model (ICP-MS); parameters: species or system athymic nude mice; conditions: systemic (IV injection) delivery, 1 mg/kg, 24 hours
[7] = test system: C33A subcutaneous cervical tumors; assay: In vivo efficacy, tumor progression with or without radiation; parameters: species or system athymic nude mice
Procedure: C33A cells (2×10^6/mouse) were suspended in 50% Matrigel and 50% DMEM media. The suspended C33A cells were injected subcutaneously around the lower back of 42 female athymic nude mice that were 6 to 8 weeks old. Tumor progression was confirmed after 3 weeks, and mice were then randomized into 6 groups (n=7) and treated with: (1) tail vein injection of PBS (Vehicle-IV), (2) Cis-Pt-IV at 1 mg/kg, (3) Cis-Pt-Implant at 1 mg Cis-Pt/kg, (4) Vehicle-IV+radiation (5 days×2 Gy/day), (5) Cis-Pt-IV+radiation, and (6) Cis-Pt-Implant+radiation.
In a separate experiment, the effect of a fractionated radiation dose was compared to a single high dose of radiation administered concurrently with Cis-Pt-Implants. C33A cells (2×10^6/mouse) were suspended in 50% Matrigel and 50% DMEM media. The suspended C33A cells were injected subcutaneously around the lower back of 14 female athymic nude mice that were 6 to 8 weeks old (Charles Rivers Laboratories). Tumor progression was confirmed after 3 weeks, mice were then intratumorally implanted with Cis-Pt-loaded implant (1 mg/kg) and randomized into 2 groups (n=7), treated with: (1) fractionated radiation (5 days×2 Gy/d), mimicking external beam radiation; or (2) a single high dose of 8 Gy, mimicking brachytherapy.
For the in vivo experiments above, tumor progression was monitored by measurement of tumor sizes in all treatment groups every 2 days. […]

[8] = 24 hours after IV injection of 100 mg/m^2; cited from earlier work

N.N.[Cl][Pt][Cl] [Cis-Pt, cis-Diammineplatinum(II) dichloride]
IC50 [1]: 6 µM
Pt levels in cell lines [2]: about 2560 ng Pt/g tissue
Pt levels detected in patient tissues ([3]; 40 mg/m^2 IV weekly, biopsies about 3 weeks into chemoradiation, average of 20): about 430 ng Pt/g tissue
influence of time of biopsy since last injection on Pt level within the tumor ([3]; 1-17 days after injection): not a major factor
drug accumulation in patient tissues lower than in cell lines at in vitro efficacious concentration [3]: about 6 fold
drug accumulation in patient tissues lower than in cell lines at in vitro efficacious concentration ([3]; listed as Cisplatin): 6 fold
sensitization to radiation therapy ([4]; 1 μM Cis-Pt): limited radio-sensitization
combination effect of Cis-Pt and radiation by CI ([4]; 1 μM treatment): sub-additive
sensitization to radiation therapy ([4]; 6 μM Cis-Pt): significant sensitization to radiation therapy in all cell lines
combination effect of Cis-Pt and radiation by CI ([4]; 6 μM treatment): supra-additive
clonogenic cell survival ([5]; 1 μM, alone or in combination with radiation (6 Gy)): unable to limit clonogenic cell survival
clonogenic growth ([5]; 3 μM): significantly restricted clonogenic growth
clonogenic growth ([5]; 6 μM): significantly restricted clonogenic growth
Pt concentration in the tumor [6]: 53 ng Pt/g tissue
treatment outcome with fractionated radiation ([7]; systemic delivery 1 mg/kg + 2 Gy×5 days): improved treatment outcome compared with radiation alone
tumor progression ([7]; systemic delivery (IV) 1 mg/kg, without radiation): did not alter tumor progression
intratumoral platinum (Pt) concentration [8]: 0.9 ng/mg
